Assays:
[1] = system: MDS bone marrow progenitor; test: MDS vs normal bone marrow progenitor formation in pre-clinical models; format: cell-based
Description: (§1) The pharmacological effects of 3-(3,4-dimethoxy-phenyl)-3-(1-oxo-1,3-dihydro-isoindol-2-yl)-propionamide derive from its action as an inhibitor of cellular response to receptor-initiated trophic signals (e.g., IGF-1, VEGF, cyclooxygenase-2), and other activities.

AML cells = test: Mitogenic response to VEGF in AML cells; format: cell-based
Description: as §1

[2] = system: adhesion molecules and apoptosis inhibitory proteins (e.g., cFLIP, cIAP); test: In vitro pharmacology: adhesion molecules and apoptosis inhibitory proteins; format: cell-based
Description: as §1

[3] = system: death-receptor initiated programmed cell death; test: In vitro pharmacology: death-receptor initiated programmed cell death; format: cell-based
Description: as §1

angiogenic response = test: In vitro pharmacology: angiogenic response; format: cell-based
Description: as §1

[4] = system: production of various cytokines; test: In vitro studies of pharmacological activity profile and cytokine production; format: cell-based, human
Experimental: The pharmacological properties of 3-(3,4-dimethoxy-phenyl)-3-(1-oxo-1,3-dihydro-isoindol-2-yl)-propionamide, including activity comparisons with thalidomide, are characterized in in vitro studies. Studies examine the effects of 3-(3,4-dimethoxy-phenyl)-3-(1-oxo-1,3-dihydro-isoindol-2-yl)-propionamide on the production of various cytokines. In addition, a safety pharmacology study of -(3,4-dimethoxy-phenyl)-3-(1-oxo-1,3-dihydro-isoindol-2-yl)-propionamide is conducted in dogs and the effects of the compound on ECG parameters are examined further as part of three repeat-dose toxicity studies in primates.
Inhibition of TNF-α production following LPS-stimulation of human PBMC and human whole blood by 3-(3,4-dimethoxy-phenyl)-3-(1-oxo-1,3-dihydro-isoindol-2-yl)-propionamide is investigated in vitro (Muller et al., Bioorg. Med. Chem. Lett. 9:1625-1630, 1999). The IC50's of 3-(3,4-dimethoxy-phenyl)-3-(1-oxo-1,3-dihydro-isoindol-2-yl)-propionamide for inhibiting production of TNF-α following LPS-stimulation of PBMC and human whole blood is measured.
as §1

MDS patients = details: cited from earlier work

COc1ccc(C(CC(N)=O)N2Cc3ccccc3C2=O)cc1OC (stereo not drawn) [3-(3,4-dimethoxy-phenyl)-3-(1-oxo-1,3-dihydro-isoindol-2-yl)-propionamide]
MDS vs normal bone marrow progenitor formation [1]: selectively suppresses MDS vs normal bone marrow progenitor formation | mitogenic response to VEGF (AML cells): abrogates mitogenic response to VEGF | ligand-induced Akt-phosphorylation (AML cells; VEGF): extinguishing ligant-induced Akt-phosphorylation | adhesion molecules and apoptosis inhibitory proteins (e.g., cFLIP, cIAP) [2]: down-regulates adhesion molecules and apoptosis inhibitory proteins | sensitivity to death-receptor initiated programmed cell death [3]: promotes sensitivity to death-receptor initiated programmed cell death | angiogenic response (angiogenic response): suppresses angiogenic response | generation of inflammatory cytokines [4]: suppresses the generation of inflammatory cytokines

recombinant human EPO: erythropoietin (EPO), hematopoietic growth factor
patients with sustained improvement in hemoglobin or decrease in transfusion requirement (MDS patients): less than 25%

recombinant human GM-CSF: granulocyte macrophage colony stimulating factor (GM-CSF)
granulocytopoiesis in treated patients (MDS patients): can restore granulocytopoiesis | improvement in hemoglobin or platelet counts (MDS patients): little or no improvement

B1: G-CSF: granulocyte colony stimulating factor (G-CSF) (protein, UniProt P09919 31-207, looked up)
Granulocyte …: TPLGPASSLPQSFLLKCLEQVRKIQGDGAALQEKLVSECATYKLCHPEELVLLGHSLGIPWAPLSSCPSQALQLAGCLSQLHSGLFLYQGLLQALEGISPELGPTLDTLQLDVADFATTIWQQMEELGMAPALQPTQGAMPAFASAFQRRAGGVLVASHLQSFLEVSYRVLRHLAQP
granulocytopoiesis in treated patients (MDS patients): can restore granulocytopoiesis | improvement in hemoglobin or platelet counts (MDS patients): little or no improvement

Reference: patent US20080213213A1, “Method For the Treatment of Myelodysplastic Syndromes Using (+)-2-[1-(3-Ethoxy-4-Methoxyphenyl)-2-Methylsulfonylethyl]-4-Acetylaminoisoindoline-1,3-Dione” (priority 2004, published 2008)
